5 compounds from patent US8877786B2, “Substituted carbamoylmethylamino acetic acid derivatives as novel NEP inhibitors” (Novartis AG, priority 2009, dated 2014) can be followed below.

Structures are written as SMILES.

The test deals with recombinant human neutral endopeptidase (NEP, EC 3.4.24.11) (Homo sapiens (Human), UniProt P08473). The test is described as follows: in vitro inhibition of recombinant human neutral endopeptidase (fluorescence lifetime assay). Particulars: recombinant human NEP 7 pM, 1 hour pre-incubation at room temperature, pH 7.4, substrate Cys(PT14)-Arg-Arg-Leu-Trp-OH 0.7 μM, FLT read after 1 hour. The test is classed as biochemical. From the text: The activity of a compound according to the present invention can be assessed by the following in vitro & in vivo methods and/or by the following in vitro & in vivo methods well-described in the art. See A fluorescence lifetime-based assay for protease inhibitor profiling on human kallikrein 7 Doering K, Meder G, Hinnenberger M, Woelcke J, Mayr L M, Hassiepen U Biomol Screen.
recombinant human neutral endopeptidase (NEP, EC 3.4.24.11), sequence (P08473 whole entry): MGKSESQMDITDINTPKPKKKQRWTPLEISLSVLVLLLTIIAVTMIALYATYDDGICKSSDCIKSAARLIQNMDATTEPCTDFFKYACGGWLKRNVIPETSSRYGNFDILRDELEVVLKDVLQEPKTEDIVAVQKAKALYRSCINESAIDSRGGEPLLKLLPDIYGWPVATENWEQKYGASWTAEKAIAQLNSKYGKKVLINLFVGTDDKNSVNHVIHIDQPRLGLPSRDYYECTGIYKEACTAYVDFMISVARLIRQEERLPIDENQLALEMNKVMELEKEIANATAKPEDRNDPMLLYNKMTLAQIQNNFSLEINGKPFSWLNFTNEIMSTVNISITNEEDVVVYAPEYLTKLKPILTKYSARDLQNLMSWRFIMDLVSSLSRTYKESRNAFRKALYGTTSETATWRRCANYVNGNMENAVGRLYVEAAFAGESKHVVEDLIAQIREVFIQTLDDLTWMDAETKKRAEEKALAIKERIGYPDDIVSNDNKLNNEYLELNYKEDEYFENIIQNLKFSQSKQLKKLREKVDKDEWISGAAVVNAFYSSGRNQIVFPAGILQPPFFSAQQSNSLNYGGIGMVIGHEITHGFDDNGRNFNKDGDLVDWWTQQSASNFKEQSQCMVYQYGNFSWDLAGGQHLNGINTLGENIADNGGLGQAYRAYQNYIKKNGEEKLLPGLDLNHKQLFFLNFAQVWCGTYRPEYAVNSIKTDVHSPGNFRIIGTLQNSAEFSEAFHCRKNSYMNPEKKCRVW
`C[C@H](N[C@@H](Cc1ccc(-c2cccc(Cl)c2)cc1)C(=O)Nc1nnn[nH]1)C(=O)O` [Example 3-1, (S)-2-[(S)-2-(3′-chloro-biphenyl-4-yl)-1-(1H-tetrazol-5-ylcarbamoyl)-ethylamino]-propionic acid]: the IC50 came out at 0.09 nM.
With `C[C@H](N[C@@H](Cc1ccc(-c2cc(Cl)ccc2Cl)cc1)C(=O)Nc1nnn[nH]1)C(=O)O` [Example 3-2, (S)-2-[(S)-2-(2′,5′-dichloro-biphenyl-4-yl)-1-(1H-tetrazol-5-ylcarbamoyl)-ethylamino]-propionic acid], the IC50 came to 0.3 nM.
The value for `C[C@H](N[C@@H](Cc1ccc(-c2ccccc2)cc1)C(=O)Nc1nnn[nH]1)C(=O)O` [Example 3-4, (S)-2-[(S)-2-Biphenyl-4-yl-1-(1H-tetrazol-5-ylcarbamoyl)-ethylamino]-propionic acid] was 11 nM; that for `C[C@H](N[C@@H](Cc1ccc(-c2cccc(Cl)c2)cc1)C(=O)Nc1cc(O)no1)C(=O)O` [Example 3-7, (S)-2-[(S)-2-(3′-Chloro-biphenyl-4-yl)-1-(3-hydroxy-isoxazol-5-ylcarbamoyl)-ethylamino]-propionic acid] was 2.4 nM.
For `O=C(O)[C@H](CCc1ccccc1)N[C@@H](Cc1ccc(-c2cccc(Cl)c2)cc1)C(=O)Nc1nnn[nH]1` [Example 3-12, (S)-2-[(S)-2-(3′-Chloro-biphenyl-4-yl)-1-(1H-tetrazol-5-ylcarbamoyl)-ethylamino]-4-phenyl-butyric acid] the value was 0.2 nM.
